In publication PMC7582705, “Structure-Based Discovery of Novel Chemical Classes of Autotaxin Inhibitors” (International Journal of Molecular Sciences, 2020):

How the values were obtained:
[1] = Solubility (Table S1); conditions: YES/NO
[2] = target: T1, ATX (Homo sapiens, UniProt Q13822); test: Amplex Red Lyso-phospholipase D assay, human ATX; type: biochemical; set-up: purchased Sino Biological; conditions: for inhibition at 30 µM: Table S2, at 30uM, read-out: %inhibition at 30uM
Protocol: All compounds proposed were assessed for their ATX inhibitory activity in vitro using the Amplex Red assay. The Amplex Red Lyso-phospholipase D assay is a fluorometry-based assay providing a sensitive method for measuring Lyso-phospholipase D (ATX) activity in vitro. In this enzyme-coupled assay, ATX activity is monitored indirectly using 10-acetyl-3,7-dihydrophenoxazine (Amplex Red reagent), a sensitive fluorogenic probe for H2O2. ATX initially cleaves the Lysophosphatidylcholine (LPC) substrate to yield choline and Lysophosphatidic acid (LPA), while choline gets subsequently oxidized by choline oxidase to betaine and H2O2. Lastly, H2O2, in the presence of horseradish peroxidase (HRP), reacts with Amplex Red reagent in a 1:1 stoichiometry to generate the highly fluorescent product resorufin.
The inhibition assay was performed as previously described with some modifications in order to accommodate the newly-discovered lag phase in ATX kinetics. To this end, and in order to provide adequate time to the hydrolysis of LPC by ATX, we added a 30min incubation period between ATX, inhibitors and LPC. Briefly, 2 μL of different concentrations of inhibitors diluted in DMSO (Sigma-Aldrich, St. Louis, MO, USA) were incubated with 50 µL of ATX 8 nM (human or mouse ATX from Sino Biological), and 48 µL reaction buffer (50 mM Tris-Cl pH 8.0 from Thermo Fisher Scientific, Waltham, MA, USA and 5 mM CaCl2 from Honeywell-Fluka, Charlotte, NC, USA) in a black 96-well microplate for 15 min at 37 °C. Thence, another 50 µL of reaction buffer with 200 μM LPC substrate 16:0 (Avanti Polar Lipids Inc, Alabaster, AL, USA) ([…]) was added to the reaction mixture and incubated for 30 min at 37 °C in order for ATX to convert LPC to LPA and choline. Finally, 50 µL of working solution containing 200 μM Amplex Red (Invitrogen, Carlsbad, CA, USA), 4 U/mL HRP (Sigma-Aldrich, St. Louis, MO, USA), 0.4 U/mL choline oxidase (Sigma-Aldrich, St. Louis, MO, USA) in 50 mM Tris-HCl pH 8.0 and 5 mM CaCl2 was added to measure the produced choline. The reaction was monitored at 37 °C in a fluorescence plate reader using excitation at 530 nm and reading at 590 nm, every 5 min for 30 min. The velocity of the reaction and the remaining activity of ATX were calculated at the linear phase of the reaction and dose-response inhibition graphs were plotted with GraphPad Software (GraphPad Software, San Diego, CA, USA). […] In order to evaluate a possible effect of the compounds on the second (choline oxidase) and third (HRP) enzymes of the Amplex Red assay, we also performed the assay in the absence of ATX but in the presence of the compounds. Instead of ATX, we added choline chloride at a final concentration of 2 µM so as the second and third steps of the assay could proceed normally.

[3] = target: T1, ATX; test: IC50 Eleanna (Table S2, method not described); type: biochemical; conditions: Table S2; read-out: IC50 Eleanna
[4] = recombinant human ATX 2 nM, LPC 16:0 substrate, Amplex Red, read-out: IC50 hATX
[5] = in vitro IC50 (Sino hATX 2nM), Table S2, Sino hATX 2nM

Compound | Solubility [1] | IC50 [2, 4] [µM] | IC50 [3] [µM] | IC50 [2, 5] [µM] | inhibition at 30 µM [2] [%]
N#Cc1ccc(-c2c(NC(=O)NS(=O)(=O)c3ccccc3Cl)oc(-c3ccco3)c2C#N)cc1 [CD09529, 2-[({[(2-chlorophenyl)sulphonyl]amino}carbonyl)amino]-4-cyano-3-(4-cyanophenyl)-5-(2-furyl)furan] | YES | > 100 | – | – | –
O=C(CN1CCN(C2c3ccccc3-c3ccccc32)CC1)c1ccc2c(c1)OCO2 [HTS10658, 1-(1,3-benzodioxol-5-yl)-2-[4-(9H-fluoren-9-yl)piperazin-1-yl]ethanone] | YES | > 100 | – | – | –
O=C(CSc1nc2cc(Cl)ccc2o1)Nc1cc(C(F)(F)F)cc(C(F)(F)F)c1 [HTS01561, N-[3,5-bis(trifluoromethyl)phenyl]-2-[(5-chloro-1,3-benzoxazol-2-yl)thio]acetamide] | YES | > 100 | – | – | –
Cc1c(S(=O)(=O)N2CCN(C3c4ccccc4-c4ccccc43)CC2)sc2ccc(Cl)cc12 [HTS08762, 1-[(5-chloro-3-methyl-1-benzothiophen-2-yl)sulfonyl]-4-(9H-fluoren-9-yl)piperazine] | YES | > 100 | – | – | –
Cc1nn(-c2ccccc2)c2nc(OCC(=O)c3ccc(Br)cc3)c(C#N)c(-c3cccnc3)c12 [HTS09079, 6-[2-(4-bromophenyl)-2-oxoethoxy]-3-methyl-1-phenyl-4-pyridin-3-,ylpyrazolo[4,5-e]pyridine-5-carbonitrile] | YES | > 100 | – | – | –
O=C1S/C(=C\c2ccc(OCc3ccc(B(O)O)cc3)cc2)C(=O)N1Cc1ccc(F)cc1 [HA155, [4-[[4-[(Z)-[3-[(4-fluorophenyl)methyl]-2,4-dioxo-1,3-thiazolidin-5-ylidene]methyl]phenoxy]methyl]phenyl]boronic acid, reference compound] | YES | – | – | – | –
O=C(c1cccnc1Oc1ccc(Cl)cc1)N1CCN(C2c3ccccc3-c3ccccc32)CC1 [HTS07938, [2-(4-chlorophenoxy)pyridin-3-yl]-[4-(9H-fluoren-9-yl)piperazin-1-yl],methanone] | YES | > 100 | – | – | –
CCc1ccc([C@H](NC(=O)CCN2C(=O)[C@@H](C)Oc3ccccc32)c2cccs2)cc1 [KM-36, N-[(S)-(4-ethylphenyl)-thiophen-2-ylmethyl]-3-[(2R)-2-methyl-3-oxo-1,4-benzoxazin-4-yl]propanamide] | – | – | 5 | > 30 | 9.71
COCCCN1C(=O)c2[nH]nc(-c3ccccc3)c2C1c1ccc(C(C)C)cc1 (centres unmarked) [KM-2, 5-(3-methoxypropyl)-3-phenyl-4-(4-propan-2-ylphenyl)-1,4-dihydropyrrolo[3,4-c]pyrazol-6-one] | – | – | > 5 | > 30 | –
COc1ccc(Cn2c(C(=O)O)c(CNC3CCCCC3)c3ccc(C)cc32)cc1 [KM-29, 3-[(cyclohexylamino)methyl]-1-[(4-methoxyphenyl)methyl]-6-methylindole-2-carboxylic acid] | – | – | 1.2 | > 30 | 3.21
CCc1nc2c(C)cc(N3CCN(CC(=O)N4CC(O)C4)CC3)cn2c1N(C)c1nc(-c2ccc(F)cc2)c(C#N)s1 [GLPG1690, 2-[[2-ethyl-6-[4-[2-(3-hydroxyazetidin-1-yl)-2-oxoethyl]piperazin-1-yl]-8-methylimidazo[1,2-a]pyridin-3-yl]-methylamino]-4-(4-fluorophenyl)-1,3-thiazole-5-carbonitrile, reference compound] | YES | – | – | – | –

The next lines start with the values.

Solubility [1] | IC50 [2, 4] [µM] | IC50 [3] [µM] | IC50 [2, 5] [µM] | inhibition at 30 µM [2] [%] | Compound
YES | > 100 | – | – | – | FC(F)(F)c1ccc2c(c1)nc(SCc1ccccc1)n2CCc1ccccc1 [RDR02791, 2-benzylsulfanyl-1-(2-phenylethyl)-5-(trifluoromethyl)benzimidazole]
YES | > 100 | – | – | – | COc1ccc(-n2c(-c3ccc(Cl)cc3)cc(-c3cccs3)c2-c2ccccc2)cc1 [RG00099, 5-(4-chlorophenyl)-1-(4-methoxyphenyl)-2-phenyl-3-(2-thienyl)-1H-pyrrole]
– | – | > 5 | > 30 | – | COc1ccc2c(CNC3CCC(C)CC3)c(C(=O)O)n(Cc3ccccc3)c2c1 (centres unmarked) [KM-47, 1-benzyl-6-methoxy-3-[[(4-methylcyclohexyl)amino]methyl]indole-2-carboxylic acid]
– | – | > 5 | > 30 | 13.6 | Cc1ccc(-n2nc3c(c2NC(=O)c2cccc4ccccc24)C[S+]([O-])C3)cc1 (centres unmarked) [SC-16, N-[2-(4-methylphenyl)-5-oxo-4,6-dihydrothieno[3,4-c]pyrazol-3-yl]naphthalene-1-carboxamide]
– | – | 2.2 | 30 | 43 | O=C(Cc1cccc2ccccc12)Nc1c2c(nn1-c1ccccc1)CS(=O)(=O)C2 [SC-5, N-(5,5-dioxo-2-phenyl-4,6-dihydrothieno[3,4-c]pyrazol-3-yl)-2-naphthalen-1-ylacetamide]
– | – | > 5 | > 30 | – | Cc1nc(-c2ccc(NS(=O)(=O)c3ccc4c5c(cccc35)CC4)cc2)cs1 [SC-30, N-[4-(2-methyl-1,3-thiazol-4-yl)phenyl]-1,2-dihydroacenaphthylene-5-sulfonamide]
– | – | 1.3 | > 30 | 35.3 | CC1Cc2nc(SCC(=O)NCc3ccc(F)cc3)n(Cc3ccccc3)c(=O)c2S1 (centres unmarked) [KM-45, 2-[(3-benzyl-6-methyl-4-oxo-6,7-dihydrothieno[3,2-d]pyrimidin-2-yl)sulfanyl]-N-[(4-fluorophenyl)methyl]acetamide]
– | – | 5 | > 30 | – | Cc1cc(C)cc(NC(=O)CSc2cn(CC(=O)N3CCCC3)c3ccccc23)c1 [KM-50, N-(3,5-dimethylphenyl)-2-[1-(2-oxo-2-pyrrolidin-1-ylethyl)indol-3-yl]sulfanylacetamide]
– | – | 4 | > 30 | 18.2 | O=C(Nc1c2c(nn1-c1ccc(F)cc1)C[S+]([O-])C2)c1ccc2ccccc2c1 (centres unmarked) [SC-24, N-[2-(4-fluorophenyl)-5-oxo-4,6-dihydrothieno[3,4-c]pyrazol-3-yl]naphthalene-2-carboxamide]
– | – | 5 | > 30 | – | CCOC(=O)c1c(C)c(-c2ccccc2)n(CC(=O)N2CCc3ccccc3C2)c1C [KM-49, ethyl 1-[2-(3,4-dihydro-1H-isoquinolin-2-yl)-2-oxoethyl]-2,4-dimethyl-5-phenylpyrrole-3-carboxylate]
– | – | 0.9 | > 30 | – | O=C1Cc2cc(C(=O)CSc3nc4ccccc4n3-c3ccccc3)ccc2N1 [SC-12, 5-[2-(1-phenylbenzimidazol-2-yl)sulfanylacetyl]-1,3-dihydroindol-2-one]
– | – | 0.6 | > 30 | 4.2 | Cc1ccccc1-n1nc2c(c1NC(=O)c1cccc3ccccc13)C[S+]([O-])C2 (centres unmarked) [SC-3, N-[2-(2-methylphenyl)-5-oxo-4,6-dihydrothieno[3,4-c]pyrazol-3-yl]naphthalene-1-carboxamide]
– | – | 5 | 30 | 55.3 | Cc1ccc(S(=O)(=O)n2cc(C=C3C(=O)Nc4ccccc43)c3ccccc32)cc1 [SC-18, 3-[[1-(4-methylphenyl)sulfonylindol-3-yl]methylidene]-1H-indol-2-one]
– | – | 4.53 | > 30 | – | O=C1c2ccccc2-c2ccc(C(=O)N3CCN(C(=O)c4cccs4)CC3)cc21 [SC-42, 2-[4-(thiophene-2-carbonyl)piperazine-1-carbonyl]fluoren-9-one]
